Data on seven compounds can be found in patent US20050065195A1, “Oxadiazolyl-biphenylcarboxamides and their use as p38 kinase inhibitors” (priority 2001, published 2005).

Take `COc1ccc(C(=O)Nc2ccc(-c3ccc(C(C)=O)cc3)c(C)c2)cc1CCCN(C)C.Cl`: the melting point (usually the temperature, or range, at which the solid turns liquid) lay within 264 to 266 °C. The same measure for `COc1ccc(C(=O)Nc2ccc(-c3ccccc3C(C)O)cc2)cc1CCCN(C)C.Cl` (stereo not shown): 224 to 227 °C. In the case of `COc1ccc(C(=O)Nc2ccc(-c3ccc(C(C)=O)cc3)cc2)cc1CCN(C)C` [1(b), N-(4′-Acetyl[1,1′-biphenyl]-4-yl)-3-[2-(dimethylamino)ethyl]-4-methoxybenzamide] it was 236 to 240 °C; in that of `CCc1ccc(-c2ccc(NC(=O)c3ccc(OC)c(CCCN(C)C)c3)cc2)cc1` [Example 6, 3-[3-(Dimethylamino)propyl]-N-(4′-ethyl[1,1′-biphenyl]-4-yl)-4-methoxybenzamide], 200 to 202 °C; in that of `COc1ccc(C(=O)Nc2ccc(-c3ccc(CO)c(O)c3)cc2)cc1CCCN(C)C` [Example 20(b), 3-[3-(Dimethylamino)propyl]-N-[3′-hydroxy-4′-(hydroxymethyl)[1,1′-biphenyl]-4-yl]-4-methoxybenzamide], 171 to 173 °C.

The compound `COc1ccc(C(=O)Nc2ccc(-c3ccc(CO)cc3C)c(C)c2)cc1CCCN(C)C` [Example 41, 3-[3-(Dimethylamino)propyl]-N-[4′-(hydroxymethyl)-2,2′-dimethyl[1,1′-biphenyl]-4-yl]-4-methoxybenzamide] displayed a melting point of 68 to 70 °C. In the case of `COc1ccc(C(=O)Nc2ccc(-c3ccc(-c4nc(C)no4)cc3C)cc2)cc1CCCN(C)C` [Example 71, 3-[3-(Dimethylamino)propyl]-4-methoxy-N-[2′-methyl-4′-(3-methyl-1,2,4-oxadiazol-5-yl)[1,1′-biphenyl]-4-yl]benzamide] it was 166 to 167 °C.
